Starred links: 1 amine or outer side, 2 acyl side, 3 side chain; linkers in the order of their positions; H or OH if unused. Positions of bridges follow the written chain, without caps; N, C: chain ends. Non-standard residues stand in square brackets, D forms with d. Residues, ends and D or L forms follow the SMILES beside them. ξ: configuration not given here. *: point of attachment. pTerphenylCO(4''-OnC5H11) = CCCCCOc1ccc(-c2ccc(-c3ccc(C(=O)*)cc3)cc2)cc1; Orn(4R-OH,5R-OH) = O=C([C@H](C[C@@H](O)[C@@H](O)N[*:3])N[*:1])[*:2]; hTyr(3S-OH,4S-OH) = N[C@H](C(=O)O)[C@H](O)[C@@H](O)c1ccc(O)cc1; Pro(3S-OH,4S-Me) = C[C@H]1CN[C@H](C(=O)O)[C@H]1O; ξPro(4R-OH) = O=C(O)C1C[C@@H](O)CN1
System: Rat Primary Kidney Glomerular Endothelial cells
Experiment: Oxygen and glucose deprivation followed by replenishment, cell survival (calcein AM), rat glomerular endothelial cells;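 as to Survival rate (%): 100% is hypoxia control with glucose and 0% is untreated OGD control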
Assay type: cell-based
Experimental: Anidulafungin and micafungin were tested on Human Renal Glomerular Endothelial Cells (HRGEC, Innoprot P10665), on Human Renal Proximal Tubular Epithelial Cells (HRPTEpiC, Innoprot P10662), on Human Astrocytes (HA, caltag SC-1800), on Human Cardiac Microvascular Endothelial Cells (HCMEC, Caltag SC-6000), on Human Hepatic Sinusoidal Endothelial Cells (HHSEC, Caltag SC-5000), on Rat Primary Kidney Glomerular Endothelial cells (Cellbiologics, RN-6014G) and on Bovine Brain Microvascular Endothelial Cells (BBMEC, Caltag SC-B100).
In a first phase, these isolated, purified and cryopreserved cells are thawed and multiplied according to the supplier's recommendations in T75 or T175 flasks pre-coated with 2 μg of fibronectin/[…] (CORNING) for HRGEC, HCMEC, HHSEC and BBMEC, or 2 μg poly-L-lysin/cm^2 (Caltag SC-0403) for HRPTEpiC and HA, or 15 mL/flask 175 cm^2 gelatin-based solution (Cellbiologics) in the presence of endothelial cell supplemented growth medium ECM (P60104, INNOPROT, Caltag, SC-1001) for HRGEC, HCMEC, HHSEC, RPKGEC or BBMEC, or astrocyte cell supplemented growth medium AM (Caltag SC-1801) for HA or epithelial cell supplemented growth medium EpiCM (P60106, INNOPROT) for HRPTEpiC, at 37° C. under 5% CO2 and saturated humidity until their confluency. They are then harvested by trypsinization according to the method described by the supplier for exactly 5 minutes and then reseeded in new flasks a maximum of three times.
To carry out the oxygen and glucose deprivation test followed by their replenishment, the cells will be seeded in 96-well black plates with transparent flat bottom (GREINER). Once a sufficient number of cells has been obtained to allow seeding of 2000 to 15000 cells per well of 96-well plates depending on the cell type, the cells are seeded in these 96-well plates previously coated with an extracellular matrix as listed above for the flasks. The cells are cultured for 5 to 8 days according to the cell type, in the presence of the same growth medium as in the flask as described above except for HRGEC and HRPTEpiC for which DMEM (DUTSCHER) with 1 g/L of supplemented glucose is used, at 37° C. under 5% CO2 and saturated humidity to obtain confluency.
On the first day of oxygen and glucose deprivation, (5th, 6th, 7th or 8th day of culture), the culture conditions are drastically changed. The medium of all plates is removed and replaced by DMEM (DUTSCHER) medium without glucose and supplemented only with 1% penicillin-streptomycin (DUTSCHER). Anidulafungin or micafungin dissolved in dimethyl sulfoxide (DMSO) is then added to each well at the desired concentration, resulting in a maximum of 1% DMSO, and the plates are placed under hypoxia at <1% 02 and 5% CO2 at 37° C. for 24 hours of culture. Each compound was tested in a concentration range.
After 24 hours, the growth medium is changed and replaced by a richer medium, DMEM (DUTSCHER) at 1 g/L glucose and 2% FBS (INNOPROT) and 1% penicillin-streptomycin (DUTSCHER). These media will have been pre-equilibrated at 37° C. in advance. The cells are then returned to culture at 37° C. under 20% 02 and 5% CO2 for 22h.
After 22 hours of reoxygenation, the potential protective effect of anidulafungin or micafungin is measured by a cell viability test using calcein AM (CORNING), which is a dye substrate. The calcein AM can easily cross the cell membrane of the viable cells. The AM ester groups mask the part of the molecule that chelates calcium. Once inside the cells, the (non-fluorescent) calcein AM is hydrolyzed to (fluorescent) calcein by endogenous esterases. The resulting calcein molecule binds to calcium inside the cell and remains trapped inside the cell. These molecules emit strong green fluorescence when subjected to […] of a particular wavelength (495 nm). Since dead cells lack esterase activity, only living cells are labelled.
This cell viability test is performed in two steps. […]

[1] = [Anidulafungin] log μM 0.1760913
[2] = [Anidulafungin] log μM 0.4771213
[3] = [Anidulafungin] log μM 0.7781513
[4] = [Anidulafungin] log μM 0.845098
[5] = [Anidulafungin] log μM 0.9542425
[6] = [Anidulafungin] log μM −0.154902
[7] = [Anidulafungin] log μM −0.30103
[8] = [Anidulafungin] log μM −0.5228788

In the case of `CCCCCOc1ccc(-c2ccc(-c3ccc(C(=O)N[C@H]4C[C@@H](O)[C@@H](O)NC(=O)[C@@H]5[C@@H](O)[C@@H](C)CN5C(=O)[C@H]([C@@H](C)O)NC(=O)[C@H]([C@H](O)[C@@H](O)c5ccc(O)cc5)NC(=O)C5C[C@@H](O)CN5C(=O)[C@H]([C@@H](C)O)NC4=O)cc3)cc2)cc1` (stereo partly drawn) [Anidulafungin] ({pTerphenylCO(4''-OnC5H11)}-[Orn(4R-OH,5R-OH)]T[ξPro(4R-OH)][hTyr(3S-OH,4S-OH)]T[Pro(3S-OH,4S-Me)]; lactam 1-C), the “Globalfluo assay 1” value ([Anidulafungin] log μM 0) is reported as 2763556 arbitrary units, the “Globalfluo assay 2” value ([Anidulafungin] log μM 0) is reported as 3715544 arbitrary units and the “Globalfluo assay 3” value ([Anidulafungin] log μM 0) is reported as 3395182 arbitrary units. For the same compound, the Mean globalfluo ([Anidulafungin] log μM 0) was 3291427 arbitrary units, the “Survival rate (%)” value ([Anidulafungin] log μM 0) was −1% and the “Globalfluo assay 1” value [1] was 4125220 arbitrary units. The “Globalfluo assay 2” value [1] was 3558016 arbitrary units, the “Globalfluo assay 3” value [1] was 4929089 arbitrary units and the Mean globalfluo [1] was 4204108 arbitrary units. The “Survival rate (%)” value [1] was 3%, the “Globalfluo assay 1” value ([Anidulafungin] log μM 0.30103) was 6944934 arbitrary units and the “Globalfluo assay 2” value ([Anidulafungin] log μM 0.30103) was 4307906 arbitrary units. For the same compound, the “Globalfluo assay 3” value ([Anidulafungin] log μM 0.30103) was 5211398 arbitrary units, the Mean globalfluo ([Anidulafungin] log μM 0.30103) was 5488079 arbitrary units and the “Survival rate (%)” value ([Anidulafungin] log μM 0.30103) was 8%. The “Globalfluo assay 1” value ([Anidulafungin] log μM 0.39794) was 7911533 arbitrary units, the “Globalfluo assay 2” value ([Anidulafungin] log μM 0.39794) was 3661322 arbitrary units and the “Globalfluo assay 3” value ([Anidulafungin] log μM 0.39794) was 9914104 arbitrary units. For the same compound, the Mean globalfluo ([Anidulafungin] log μM 0.39794) was 7162320 arbitrary units, the “Survival rate (%)” value ([Anidulafungin] log μM 0.39794) was 15% and the “Globalfluo assay 1” value [2] was 5124858 arbitrary units. For the same compound, the “Globalfluo assay 2” value [2] was 4212586 arbitrary units, the “Globalfluo assay 3” value [2] was 3823154 arbitrary units and the Mean globalfluo [2] was 4386866 arbitrary units. For the same compound, the “Survival rate (%)” value [2] was 4%, the “Globalfluo assay 1” value ([Anidulafungin] log μM 0.60206) was 7387656 arbitrary units and the “Globalfluo assay 2” value ([Anidulafungin] log μM 0.60206) was 4239781 arbitrary units. The “Globalfluo assay 3” value ([Anidulafungin] log μM 0.60206) was 4439823 arbitrary units, the Mean globalfluo ([Anidulafungin] log μM 0.60206) was 5355753 arbitrary units and the “Survival rate (%)” value ([Anidulafungin] log μM 0.60206) was 7%. For the same compound, the “Globalfluo assay 1” value ([Anidulafungin] log μM 0.69897) was 10033620 arbitrary units, the “Globalfluo assay 2” value ([Anidulafungin] log μM 0.69897) was 4718363 arbitrary units and the “Globalfluo assay 3” value ([Anidulafungin] log μM 0.69897) was 7321110 arbitrary units. For the same compound, the Mean globalfluo ([Anidulafungin] log μM 0.69897) was 7357698 arbitrary units, the “Survival rate (%)” value ([Anidulafungin] log μM 0.69897) was 16% and the “Globalfluo assay 1” value [3] was 10219130 arbitrary units. For the same compound, the “Globalfluo assay 2” value [3] was 11308900 arbitrary units, the “Globalfluo assay 3” value [3] was 8342703 arbitrary units and the Mean globalfluo [3] was 9956911 arbitrary units. The “Survival rate (%)” value [3] was 26%, the “Globalfluo assay 1” value [4] was 10949560 arbitrary units and the “Globalfluo assay 2” value [4] was 9736722 arbitrary units. For the same compound, the “Globalfluo assay 3” value [4] was 8273113 arbitrary units, the Mean globalfluo [4] was 9653132 arbitrary units and the “Survival rate (%)” value [4] was 25%. For the same compound, the “Globalfluo assay 1” value ([Anidulafungin] log μM 0.90309) was 15350400 arbitrary units, the “Globalfluo assay 2” value ([Anidulafungin] log μM 0.90309) was 11785650 arbitrary units and the “Globalfluo assay 3” value ([Anidulafungin] log μM 0.90309) was 7401575 arbitrary units. For the same compound, the Mean globalfluo ([Anidulafungin] log μM 0.90309) was 11512542 arbitrary units, the “Survival rate (%)” value ([Anidulafungin] log μM 0.90309) was 32% and the “Globalfluo assay 1” value [5] was 9960942 arbitrary units. The “Globalfluo assay 2” value [5] was 10967130 arbitrary units, the “Globalfluo assay 3” value [5] was 15364830 arbitrary units and the Mean globalfluo [5] was 12097634 arbitrary units. For the same compound, the “Survival rate (%)” value [5] was 35%, the “Globalfluo assay 1” value [6] was 3628425 arbitrary units and the “Globalfluo assay 2” value [6] was 3463582 arbitrary units. For the same compound, the “Globalfluo assay 3” value [6] was 3208621 arbitrary units, the Mean globalfluo [6] was 3433543 arbitrary units and the “Survival rate (%)” value [6] was 0%. The “Globalfluo assay 1” value [7] was 2638281 arbitrary units, the “Globalfluo assay 2” value [7] was 3646882 arbitrary units and the “Globalfluo assay 3” value [7] was 3842217 arbitrary units. For the same compound, the Mean globalfluo [7] was 3375793 arbitrary units, the “Survival rate (%)” value [7] was −1% and the “Globalfluo assay 1” value [8] was 3892260 arbitrary units. The “Globalfluo assay 2” value [8] was 3780606 arbitrary units, the “Globalfluo assay 3” value [8] was 4016223 arbitrary units and the Mean globalfluo [8] was 3896363 arbitrary units. The “Survival rate (%)” value [8] was 2%, the “Globalfluo assay 1” value ([Anidulafungin] log μM −1) was 3282790 arbitrary units and the “Globalfluo assay 2” value ([Anidulafungin] log μM −1) was 3299018 arbitrary units. For the same compound, the “Globalfluo assay 3” value ([Anidulafungin] log μM −1) was 4299152 arbitrary units, the Mean globalfluo ([Anidulafungin] log μM −1) was 3626987 arbitrary units and the “Survival rate (%)” value ([Anidulafungin] log μM −1) was 0%. For the same compound, the “Globalfluo assay 1” value ([Anidulafungin] log μM −2) was 5018485 arbitrary units, the “Globalfluo assay 2” value ([Anidulafungin] log μM −2) was 4417533 arbitrary units and the “Globalfluo assay 3” value ([Anidulafungin] log μM −2) was 3450400 arbitrary units. For the same compound, the Mean globalfluo ([Anidulafungin] log μM −2) was 4295473 arbitrary units, the “Survival rate (%)” value ([Anidulafungin] log μM −2) was 3% and the “Globalfluo assay 1” value ([Anidulafungin] log μM −3) was 2824954 arbitrary units. The “Globalfluo assay 2” value ([Anidulafungin] log μM −3) was 3274736 arbitrary units, the “Globalfluo assay 3” value ([Anidulafungin] log μM −3) was 3773899 arbitrary units and the Mean globalfluo ([Anidulafungin] log μM −3) was 3291196 arbitrary units. For the same compound, the “Survival rate (%)” value ([Anidulafungin] log μM −3) was −1%.
